Values after ≈ are worked out from the molar mass of the structure shown.
Key:
[1] = in vitro; conditions: hepatocytes
[2] = in vitro; conditions: SD, HW or BN, rat, plasma
[3] = physchem; conditions: pH 7.4 buffer
[4] = in vitro; conditions: human, plasma, PPB
[5] = in vitro; conditions: human
[6] = physchem; conditions: octan-1-ol/water, pH 7.4, LogD7.4

| Structure (SMILES) | hepatocyte CLint [1] [µL/min/1e6 cells] | fraction unbound at 5 h [2] | solubility thermodynamic [3] [µM] | fraction unbound at 5 h [4] | microsomal CLint ([5]; liver microsomes) [µL/min/mg] | logD [6] | microsomal CLint ([5]; microsomes) [µL/min/mg] |
| --- | --- | --- | --- | --- | --- | --- | --- |
| O=C(CN1CCOCC1)Nc1ccc(-c2cccc3c(=O)cc(N4CCOCC4)oc23)cc1-c1ccccc1 | 123 | 0.0633 |  |  |  |  |  |
| COc1cc(NC(=O)c2ccccn2)ccc1Cl | > 150 | 0.0447 |  |  |  |  |  |
| COc1ccc2c(Oc3ccc(CC(=O)Nc4cn(C)nc4C)c(OC)c3)ccnc2c1 | 23.4 |  | 10.7 (≈ 4.63 µg/mL) | 0.0111 | 24.6 | 3.5 |  |
| CCOc1ccc(-n2c([C@@H](C)N(Cc3cccnc3)C(=O)Cc3ccc(OC(F)(F)F)cc3)nc3ncccc3c2=O)cc1 | 20 | 0.0293 |  | 0.0477 |  | 3.7 |  |
| C[C@@H](NC(=O)C1CCNCC1)c1ccc(Nc2ncc3cc(-c4ccncc4)ccc3n2)cc1 | < 3 |  |  | 0.0477 | 4.17 | 0.4 |  |
| O=C(Nc1cccc(Cl)c1)c1ccccn1 | > 150 | 0.0488 |  |  |  | 3.4 |  |
| CC(C)N(CCCNC(=O)Nc1ccc(C(C)(C)C)cc1)C[C@H]1O[C@@H](n2cnc3c(N)ncnc32)[C@H](O)[C@@H]1O | 26.9 |  |  | 0.285 | 112 | 2.2 |  |
| Cc1cc(OCCCS(C)(=O)=O)cc(C)c1-c1cccc(COc2ccc3c(c2)OC[C@H]3CC(=O)O)c1 | 10 |  | 51.3 (≈ 26.9 µg/mL) | 0.0036 |  | 2.3 | 5.5 |
| Cc1ccc(S(=O)(=O)N2N=Cc3ccccc3B2O)cc1 | 6.17 |  |  | 0.0836 | 14.1 | 0.05 |  |
| CCc1[nH]c2nc(Sc3cnc4ccc[n+]([O-])c4c3)nc(N3C[C@@H]4[C@@H](N)[C@@H]4C3)c2c1Cl | 58.9 |  |  | 0.0661 |  | 2.3 | 33.9 |
| CCOc1ccc(-n2c([C@@H](C)N(CC3CCN(C)CC3)C(=O)Cc3ccc(F)c(C(F)(F)F)c3)nc3ncccc3c2=O)cc1 | 19.9 |  |  | 0.129 | 21.4 | 1.4 |  |
| Cc1ccc(C(NC(=O)c2ccccc2O)C(=O)Nc2c(C)cccc2C)s1 (centres undefined) | 70 | 0.0075 |  |  |  | 4.05 |  |
| Cc1oc(-c2ccccc2)cc1C(=O)Nc1cccc(C(=O)O)c1 | 66.1 |  |  | 0.002 | 4.17 | 1.63 |  |
| COCC1=C(C(=O)O)N2C(=O)[C@@H](NC(=O)/C(=N\OC)c3csc(N)n3)[C@H]2SC1 [CEFPODOXIME] | < 3 | 0.454 |  | 0.465 |  |  |  |
| O=S1(=O)CC(O)C(N2CCC(c3ccccc3)CC2)C1 (centres undefined) | 75.9 |  |  | 0.569 |  | 1.4 | 5.25 |
| C[C@H](NC(=O)c1cccc2c1N(Cc1ccc(Cl)cc1)CC2)c1ccc(C(=O)O)cc1 | 13.2 |  |  | 0.0133 | 15.8 | 1.47 |  |
| COc1ccc2nc(C)cc(N3CC(CNC(=O)C4CC4)OC3=O)c2c1 (centres undefined) | 19.5 |  |  | 0.324 |  | 1.55 | 8.91 |
| CCCS(=O)(=O)N1N=Cc2cc(Cl)ccc2B1O | < 3 |  |  | 0.17 | 9.77 | -0.4 |  |
| CC(=O)Nc1nc(CCc2ccc(NC(=N)N)cc2)cs1 | 12.9 |  |  | 0.465 | 3.98 | -0.82 |  |

| Structure (SMILES) | hepatocyte CLint [1] [µL/min/1e6 cells] | fraction unbound at 5 h [2] | solubility thermodynamic [3] [µM] | fraction unbound at 5 h [4] | microsomal CLint ([5]; liver microsomes) [µL/min/mg] | logD [6] | microsomal CLint ([5]; microsomes) [µL/min/mg] |
| --- | --- | --- | --- | --- | --- | --- | --- |
| COc1ccc(NC(=O)CCc2c(C)nc3nc(C)nn3c2C)cc1 | 3.09 |  |  | 0.176 |  | 1.4 | 3.98 |
| CN[C@@H](C)C(=O)N[C@H](C(=O)N1CC[C@H]2CC[C@H](NC(=O)c3cccc4ccccc34)[C@H]21)C(C)(C)C | 12 |  |  | 0.016 | 85.1 | 1.94 |  |
| O=C(Nc1ccccc1Cl)c1cc[nH]n1 | > 150 |  |  | 0.0661 |  | 2.58 | 138 |
| Cc1cc(CCCOc2c(Cl)cc(C3=NCCO3)cc2Cl)on1 | > 150 |  |  | 0.0034 |  | 3.72 | 66.1 |
| O=C(Nc1ccc(F)cc1)c1ccc(Cl)[n+]([O-])c1 | 149 |  | 355 (≈ 94.6 µg/mL) | 0.465 |  | 1.38 | < 3 |
| NC(=O)c1ccc(N(C(N)=O)c2c(F)cccc2F)nc1-c1ccc(F)cc1F [VX-702] | < 3 |  |  | 0.392 | 5.13 | 1.6 |  |
| Nc1ncnc2c1ncn2[C@@H]1O[C@H](CSCCCNC(=O)NCc2ccccc2)[C@@H](O)[C@H]1O | 14.4 |  |  | 0.154 |  | 0.9 | 21.4 |
| CNCc1ccc(-c2[nH]c3cc(F)cc4c3c2CCNC4=O)cc1 [RUCAPARIB] | 12 |  | 851 (≈ 275 µg/mL) | 0.232 |  | 1.17 | 5.5 |
| CC1N=C(N)N=C(N)N1c1ccc(Cl)cc1 (centres undefined) | < 3 |  |  | 0.747 | 3.31 | -0.8 |  |
| Cc1cc(C)cc(-c2nnc(SCC(=O)N3CCN(C(=O)c4ccco4)CC3)o2)c1 | 89.1 |  |  | 0.0321 |  | 3 | 67.6 |
| Clc1ccc2ncc(-c3cccc(NC4CNC4)n3)n2c1 | 19.1 |  |  | 0.163 | < 3 | 1.19 |  |
| Cc1ccc(S(=O)(=O)Nc2c(C(=O)N[C@@H](C)C(C)(C)C)c(C)nn2C2CCN(CC(F)(F)F)CC2)cc1 | < 3 |  |  | 0.117 |  | 1.08 | < 3 |
| CC(C)(C)NS(=O)(=O)c1cncc(-c2ccc3nc(N)nn3c2)c1 | 20 |  | 63.1 (≈ 21.9 µg/mL) | 0.371 |  | 1.41 | < 3 |
| CC(C)N(CCCNC(=O)Nc1ccc(C(C)(C)C)cc1)C[C@H]1O[C@@H](n2ccc3c(N)ncnc32)[C@H](O)[C@@H]1O | 33.9 |  |  | 0.201 | > 150 | 2.4 |  |
| O=C(O)CCc1ccc(OCc2cc(Cl)ccc2-c2ccccc2)cc1 | 13.8 |  |  | 0.002 |  | 3.22 | < 3 |
| COc1cc(O)c(C(CC(=O)N2CC(C)CC(C)C2)c2ccc3c(c2)OCO3)c(OC)c1 (centres undefined) | > 150 |  |  | 0.0024 |  | 4.3 | > 150 |
| CCc1cc2c(cc1N1CCC(N3CCOCC3)CC1)C(C)(C)c1[nH]c3cc(C#N)ccc3c1C2=O [ALECTINIB] | 5.01 | 0.5 |  |  |  |  |  |
| Cc1ccc(CO)cc1N(c1ccnc(Nc2cc(N3CCOCC3)cc(S(C)(=O)=O)c2)n1)C(C)C | 53.7 |  | 1.3 (≈ 0.665 µg/mL) | 0.0409 | > 150 |  |  |

Source: ChEMBL document CHEMBL3301361, “Experimental in vitro DMPK and physicochemical data on a set of publicly disclosed compounds”
